# Tests used:
# Assay in all cases: ≥ marks a high value that may be exact or a test limit, other limits are often not marked, values filed in µg/mL are converted to µM
# [1] = system: Bacillus subtilis MTCC 121
# [2] = system: Escherichia coli ATCC 11775
# [3] = system: Escherichia coli ATCC 35218
# [4] = system: Escherichia coli ML-35p
# [5] = system: Klebsiella pneumoniae ATCC 13883
# [6] = system: Klebsiella pneumoniae ATCC 700603
# [7] = system: Micrococcus luteus MTCC 166
# [8] = system: Pseudomonas aeruginosa ATCC 27853
# [9] = system: Salmonella enterica subsp. enterica serovar Abony NCTC 6017
# [10] = system: Salmonella enterica subsp. enterica serovar Typhi Vi+
# [11] = system: Salmonella enterica subsp. enterica serovar Typhimurium ATCC 14028
# [12] = system: Staphylococcus aureus ATCC 33592
# [13] = system: Staphylococcus epidermidis MTCC 435
# [14] = system: Staphylococcus saprophyticus MTCC 6155
# [15] = system: Cronobacter muytjensii ATCC 51329
# [16] = system: Cronobacter sakazakii ATCC BAA-894
# [17] = system: Cronobacter sakazakii DPC 6440
# [18] = system: Cronobacter sakazakii DSM 4485
# [19] = system: Escherichia coli NCIMB 11843
# [20] = system: Escherichia coli O111
# [21] = system: Escherichia coli O157:H7
# [22] = system: Klebsiella pneumoniae NCIMB 13218
# [23] = system: Pseudomonas fluorescens NCIMB 9046
# [24] = system: Salmonella enterica subsp. enterica serovar Typhimurium DT104
# [25] = system: Salmonella enterica subsp. enterica serovar Typhimurium LT2
# [26] = system: Staphylococcus aureus NCTC 7428
# [27] = system: Staphylococcus aureus NCTC 8325-4
# [28] = system: Staphylococcus aureus Newman
# [29] = system: Staphylococcus aureus RF122
# [30] = system: Staphylococcus aureus RN4220
# [31] = system: Staphylococcus aureus SA113
# [32] = system: Bacillus cereus ATCC 11778
# [33] = system: Escherichia coli ATCC 25922
# [34] = system: Listeria monocytogenes ATCC BAA-751
# [35] = system: Pseudomonas aeruginosa ATCC 9027
# [36] = system: Staphylococcus aureus ATCC 25923
# [37] = system: Staphylococcus aureus ATCC 29213
# [38] = system: Staphylococcus aureus ATCC 43300
# [39] = system: Escherichia coli DH5alpha
# [40] = system: Pseudomonas aeruginosa NBRC 13275
# [41] = system: Staphylococcus aureus NBRC 13276
smiles,measurement,setting,value
CC[C@H](C)[C@H](N)C(=O)N[C@@H](CC(C)C)C(=O)N1CCC[C@H]1C(=O)N[C@@H](Cc1c[nH]c2ccccc12)C(=O)N[C@@H](CCCCN)C(=O)N[C@@H](Cc1c[nH]c2ccccc12)C(=O)N[C@@H](CCCCN)C(=O)N[C@@H](Cc1c[nH]c2ccccc12)C(=O)N[C@H](C(=O)N1CCC[C@H]1C(=O)N[C@@H](Cc1c[nH]c2ccccc12)C(=O)N[C@@H](CCCN=C(N)N)C(=O)N[C@@H](CCCN=C(N)N)C(N)=O)[C@@H](C)O [ILPWKWKWTPWRR],MIC,[1],3 µM
same,MIC,[2],4 µM
same,MIC,[3],5 µM
same,MIC,[4],4 µM
same,MIC,[5],3 µM
same,MIC,[6],5 µM
same,MIC,[7],2.5 µM
same,MIC,[8],4 µM
same,MIC,[9],7 µM
same,MIC,[10],2 µM
same,MIC,[11],7 µM
same,MIC,[12],3 µM
same,MIC,[13],4 µM
same,MIC,[14],3 µM
CC(C)C[C@H](NC(=O)[C@H](CC(C)C)NC(=O)[C@H](CC(N)=O)NC(=O)[C@H](CCC(=O)O)NC(=O)[C@H](CC(N)=O)NC(=O)[C@H](CC(C)C)NC(=O)[C@@H](N)C(C)C)C(=O)N[C@@H](CCCN=C(N)N)C(=O)O [VLNENLLR],MIC,[15],≥ 625 µM
same,MIC,[16],≥ 625 µM
same,MIC,[17],≥ 1250 µM
same,MIC,[18],≥ 625 µM
same,MIC,[19],≥ 1250 µM
same,MIC,[20],≥ 2060 µM
same,MIC,[21],≥ 2060 µM
same,MIC,[22],≥ 1250 µM
same,MIC,[8],64 µM
same,MIC,[23],≥ 1250 µM
same,MIC,[24],≥ 2060 µM
same,MIC,[25],≥ 1250 µM
same,MIC,[26],≥ 2060 µM
same,MIC,[27],≥ 1250 µM
same,MIC,[28],≥ 1250 µM
same,MIC,[29],≥ 1250 µM
same,MIC,[30],≥ 1250 µM
same,MIC,[31],≥ 1250 µM
CC[C@H](C)[C@H](NC(=O)CNC(=O)[C@H](CCCCN)NC(=O)[C@@H](NC(=O)[C@H](CC(C)C)NC(=O)[C@H](CCCCN)NC(=O)CNC(=O)[C@H](CC(C)C)NC(=O)CNC(=O)[C@H](CO)NC(=O)[C@H](CCCCN)NC(=O)[C@H](Cc1ccccc1)NC(=O)[C@@H](NC(=O)[C@H](CCCN=C(N)N)NC(=O)[C@H](CCCCN)NC(=O)[C@H](CC(C)C)NC(=O)CN)[C@@H](C)CC)C(C)C)C(=O)N[C@@H](CO)C(=O)N[C@@H](C)C(=O)N[C@@H](Cc1cnc[nH]1)C(=O)N[C@H](C(=O)N[C@@H](C)C(=O)N[C@@H](CO)C(=O)O)C(C)C [GLKRIFKSGLGKLVKGISAHVAS],MIC,[32],≥ 125 µM
same,MIC,[33],62.5 µM
same,MIC,[34],≥ 62.5 µM
same,MIC,[35],250 µM
same,MIC,[11],125 µM
same,MIC,[36],62.5 µM
same,MIC,[37],250 µM
same,MIC,[38],250 µM
CC(=O)N[C@@H](CCCCN)C(=O)N[C@@H](Cc1ccccc1)C(=O)N[C@@H](CC(C)C)C(=O)N[C@@H](Cc1cnc[nH]1)C(=O)N[C@@H](CO)C(=O)N[C@@H](C)C(=O)N[C@@H](CCCCN)C(=O)N[C@@H](CCCCN)C(=O)N[C@@H](Cc1ccccc1)C(N)=O [KFLHSAKKF],MIC,[39],≥ 200 µM
same,MIC,[40],≥ 200 µM
same,MIC,[41],≥ 400 µM

# Source: DBAASP
